The source of these data is ChEMBL document CHEMBL1127096, “Synthesis and anticonvulsant activity of the (+)- and ()-enantiomers of 1,2,3,4-tetrahydro-5-(2-phosphonoethyl)-3-isoquinolinecarboxylic acid, a competitive NMDA antagonist” (Bioorg Med Chem Lett, 1993).

Some results are limits rather than exact numbers.

What is called ED50 is the midpoint of the dose-response relation. The logP is the decadic logarithm of the partition coefficient of the neutral form, usually between octanol and water. A higher logP goes with higher lipophilicity. Broadly, the IC50 is the concentration that gives 50% inhibition.

For data set [1], the system named is Mus musculus. The data set is described as follows: Tested in vivo for anticonvulsant activity against maximal electroshock in mouse, intravenously. Type of data set: functional. For orientation: The maximal electroshock test induces tonic seizures with an electrical stimulus.
Data set [2] in a line: Partition coefficient (logP). It counts as physicochemical. The following applies: octanol/water.
Data set [3] deals with Mus musculus. Description: Tested in vivo for anticonvulsant activity against maximal electroshock in mouse, intravenously (MES tested at 1 h). Type of data set: functional.
Data set [4] deals with Mus musculus. Description: Tested in vivo for the ability to produce ataxia in mouse, intravenously. (ataxia tested at 30 min). Type of data set: functional.
The target in a further data set is Glutamate NMDA receptor. Description: Tested for the inhibitory activity against NMDA receptor site as measured in a [3H]CPP binding assay of rat brain neuronal membranes.
A short description of data set [5]: Tested for the NMDA antagonist activity, glutamate induced LDH release in cultured neuronal cells. Type of data set: functional, cell-based.
The nature of data set [6]: Tested for the NMDA antagonist activity, glutamate induced calcium influx in cultured neuronal cells. Type of data set: functional, cell-based.
Data set [7] in a line: Tested for the therapeutic index, which was determined as the ratio of ED50 for ataxia and ED50 to prevent seizures. To be noted: for selectivity ratio: read-out: TI.

Molecule `C/C(=C\C(N)C(=O)O)CP(=O)(O)O` (single isomer, unassigned; (-)) [CGP-37849] returned an ED50 with Mus musculus [1] of more than 60 mg/kg.
`C/C(=C\C(N)C(=O)O)CP(=O)(O)O` (single isomer, unassigned; (+)) [CGP-37849] displayed an ED50 with Mus musculus [1] of 7 mg/kg.
In data set [2], `O=C(O)[C@H]1Cc2c(CCP(=O)(O)O)cccc2CN1` (racemic) displayed a logP of 1.4. Further, the ED50 in the data set on Mus musculus [3] was found to be 9.2 mg/kg; with Mus musculus [4], 15.84 mg/kg. Besides, the concentration for half-maximal inhibition (IC50) came out at 0.27 µM on Glutamate NMDA receptor, 8.8 µM in data set [5] and 5.1 µM in data set [6]. Also, in data set [7], the TI was found to be 1.72.
In data set [2], `O=C(O)C1CN(CCCP(=O)(O)O)CCN1` (centres undefined) displayed a logP of -3.4. In addition, the ED50 in the data set with Mus musculus [3] (Mus musculus, iv, 1 h, read-out: ED50) came to 2.35 mg/kg; in the data set on Mus musculus [4] (Mus musculus, iv, 0.5 h, read-out: ED50) it was 5.21 mg/kg. Besides, the IC50 stood at 9 µM in data set [5] and 2.4 µM in data set [6]. Also, the selectivity ratio in data set [7] came out at 2.21.
With `O=C(O)[C@H]1Cc2c(CCP(=O)(O)O)cccc2CN1`, the ED50 turned out to be 3.56 mg/kg in the data set on Mus musculus [3] and 6.29 mg/kg in the data set with Mus musculus [4]. Further, the selectivity ratio in data set [7] came to 1.76.
`C/C(=C\C(N)C(=O)O)CP(=O)(O)O` (racemic) [CGP-37849] gave an ED50 with Mus musculus [1] of 21 mg/kg.
